Measured values: patent US9808448B2, “Pharmaceutical compounds and use of same in cancer and tauopathies” (THE REGENTS OF THE UNIVERSITY OF MICHIGAN, priority 2013, dated 2017)
Read-outs that look alike come from different tables or passages of the source.

Tests used:
human Hsc70 (HSPA8) = target: T1, human Hsc70 (HSPA8) (Homo sapiens, UniProt P11142); assay: ELISA competitive binding assay (biotinylated MKT-077 displacement); conditions: competitive ELISA, biotin labeled MKT-077 1 μM
T1 construct: made in house
Experimental: Binding of MKT-077 analogs to immobilized Hsp70 was evaluated using a competitive ELISA. In this established assay, a biotinylated version of MKT-077 is bound to immobilized human Hsc70 (HSPA8) and potential competitors are tested for their ability to block the interaction.
A sample of Hsc70 (50 μL; 0.06 mg/mL) was immobilized in clear flat-bottom 96-well plate in MES buffer (50 mM 2-(N-morpholino)ethanesulfonic acid, pH 5.2) at 37° C. overnight. After discarding the excess protein solution, each well was washed three times with 150 μL TBS-T buffer (25 mM Tris, 140 mM NaCl, 2.7 mM KCl, 0.01% Tween-20, pH 7.4). Then, 1 μL of compound (1% DMSO) was diluted into 24 μL of binding buffer (100 mM Tris, 20 mM KCl, 6 mM MgCl2, 0.01% Triton-X100) and incubated at room temperature for 30 min. Biotin labeled MKT-077 (final concentration 1 μM; 25 μL) was subsequently added into each well and the mixture was incubated at room temperature for another 3 hrs. The wells were washed with 150 μL TBS-T buffer three times prior to blocking with 100 μL 3% bovine serum albumin (BSA) in TBS-T buffer for 5 min at room temperature. After the removal of the BSA solution, 50 μL of HRP-streptavidin (Pierce Biotechnology, 1:50000 TBS-T dilution) solution was added and the plates were incubated at room temperature for 1 hr. The HRP-streptavidin solution was removed and wells were washed three times with 150 μL TBS-T. […] substrate (Cell Signaling Technology 100 μL) was added into each well and incubated at room temperature until a visible blue color was shown in wells (about 20 min). 1 M HCl stop solution was then added into each well to yield a yellow solution and the absorbance at 450 nm was recorded on SpectraMax M5 (Molecular Devices).

[1] = target: prokaryotic Hsp70 (DnaK) binding to denatured luciferase (Escherichia coli, UniProt P0A6Y8); assay: Luciferase binding assay; assay type: biochemical; conditions: 50 μM
Experimental: Next, the effect of chaperone functions by binding of YM-08 to Hsp70 was investigated. […] This profile is shared with other allosteric Hsp70 inhibitors. As another test of chaperone function, the effects of the compounds on the binding of Hsp70 to a misfolded protein were measured. In previous work, MKT-077 stabilized the interaction between prokaryotic Hsp70 (DnaK) and denatured luciferase. Briefly, this assay involves immobilizing unfolded luciferase in microtiter plates and measuring binding to DnaK. […] To explore whether YM-08 might also enhance binding of Hsp70 to a more physiologically relevant substrate, binding of tau to immobilized human Hsc70 was measured.
Binding of prokaryotic Hsp70 (DnaK) to denatured luciferase was measured as previously described, in e.g., Miyata, et al., J. Biomol. Screen, 15:1211-1219 (2010). Briefly, firefly luciferase (0.2 mg/mL) was proteolyzed with trypsin and immobilized in 96-well microtiter plates. After washing, the binding of luciferase to DnaK (500 nM) was measured using an anti-DnaK antibody and HRP secondary antibody. A similar strategy was used to monitor binding of human Hsc70 to tau, as previously described in Thompson, et al., ACS Chem. Biol., 7:1677-1686 (2012).

[2] = system: MCF-7, MCF-10A and MB-MDA-231 cells; assay: MTT assays, three cell lines; assay type: cell-based; conditions: range over MCF-7, MCF-10A and MB-MDA-231 cells
Experimental: YM-08 was tested whether it might retain the anti-cancer activity of MKT-077.

[3] = Pharmacokinetics of YM-08 in plasma and brain, CD1 mice; assay type: in vivo, mouse
Experimental: The initial pharmacokinetics (PK) of YM-01 and YM-08 were tested in CD1 mice. […] After a single 6.6 mg/kg dose delivered i.v., the peak brain concentration of YM-08 was 4 μg/g (FIG. 7B) and the ratio in the brain:plasma (B/P) ratio was approximately 0.25 for 18 hrs (FIG. 7C). […] It is not yet clear how much tau levels need to be reduced to achieve therapeutic effects in disease models, but the area-under-the-curve (AUCinf) for YM-08 in the brain was 0.26 μg·hr/g and the AUCinf in plasma was 13.6 μg·hr/mL.
Female CD-1 mice (25-30 g in body weight) were purchased from Charles River Laboratories (Wilmington, Mass.). Mice were treated with 6 mg/kg YM-08 through the tail-vein injection. The plasma and brain were collected at 0.016, 0.08, 0.16, 0.25, 0.5, 1, 2, 4, 6, 13, 18, 24 and 48 h after drug administration. Whole blood samples were drawn through the cardiac puncture using a heparinized syringe with a 22 gauge needle, followed by centrifugation at 3,000 g for 10 min at 4° C. to obtain plasma. Collected tissues were washed with PBS, immediately frozen using liquid nitrogen, and stored at −80° C. until further analysis. Tissue homogenates were prepared by adding PBS (1:5 w/v, homogenate/PBS) and homogenization for 3 min. Compound was extracted from 100 μL of sample by adding 300 μL of acetonitrile containing 50 ng/mL IS, followed by vortexing for 3 min. The supernatant was collected and subjected to LC-MS/MS analysis.
The separation of YM-08 and internal standard was performed using Agilent 1200 HPLC system (Agilent Technologies, Santa Clara, Calif.) and Zobarx SB-C18 column (2.1×50 mm, 3.5 μm) (Agilent Technologies). […] The compounds were eluted with an fixed gradient of 20% solvent A and 80% of solvent B. Solvent A consisted of 0.1% (v/v) glacial acetic acid in water and solvent B consisted of 0.1% (v/v) glacial acetic acid in acetonitrile. After injecting 10 μl of samples into HPLC system, the elution was performed over 2 min at a flow rate of 0.4 ml/min. The YM-08 and MKT-077 eluents were detected using QTRAP 3200 mass spectrometer (Applied Biosystems/MDS Sciex, Foster City, Calif.) equipped with an electrospray ionization source (ESI). The temperature of ESI was set at 650° C. and curtain gas, gas 1, and gas 2 were set to 30, 50, and 50 units, respectively. A positive voltage at 5500 V was applied through ESI to convert the eluents to ions in the form of MH+. The ions were detected using a MRM mode. The ion transitions from the precursor ion (m/z 368) to the fragment ion (m/z=222) and from the precursor ion (m/z 396) to the fragment ion (m/z=175) were used to detect YM-08 and IS, respectively.

T1 sequence (P11142 whole entry): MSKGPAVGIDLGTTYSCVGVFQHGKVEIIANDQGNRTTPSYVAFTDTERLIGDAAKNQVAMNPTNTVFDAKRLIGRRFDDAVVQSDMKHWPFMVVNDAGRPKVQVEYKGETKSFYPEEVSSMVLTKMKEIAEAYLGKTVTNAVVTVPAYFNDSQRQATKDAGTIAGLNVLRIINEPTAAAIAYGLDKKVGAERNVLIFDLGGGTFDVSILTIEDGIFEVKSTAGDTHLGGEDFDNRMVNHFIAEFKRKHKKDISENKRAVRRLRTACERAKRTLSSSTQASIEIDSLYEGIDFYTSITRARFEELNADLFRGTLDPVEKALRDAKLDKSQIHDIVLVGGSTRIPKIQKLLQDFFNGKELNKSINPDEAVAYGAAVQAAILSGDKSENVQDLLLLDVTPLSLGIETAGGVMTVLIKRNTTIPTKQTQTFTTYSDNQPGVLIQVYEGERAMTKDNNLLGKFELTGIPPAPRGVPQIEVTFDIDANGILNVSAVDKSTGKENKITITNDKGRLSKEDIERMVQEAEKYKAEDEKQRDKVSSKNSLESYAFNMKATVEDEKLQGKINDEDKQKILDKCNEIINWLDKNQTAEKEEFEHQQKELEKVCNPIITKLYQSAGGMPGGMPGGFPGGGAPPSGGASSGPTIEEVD
Chain of prokaryotic Hsp70 (DnaK) binding to denatured luciferase (P0A6Y8 whole entry): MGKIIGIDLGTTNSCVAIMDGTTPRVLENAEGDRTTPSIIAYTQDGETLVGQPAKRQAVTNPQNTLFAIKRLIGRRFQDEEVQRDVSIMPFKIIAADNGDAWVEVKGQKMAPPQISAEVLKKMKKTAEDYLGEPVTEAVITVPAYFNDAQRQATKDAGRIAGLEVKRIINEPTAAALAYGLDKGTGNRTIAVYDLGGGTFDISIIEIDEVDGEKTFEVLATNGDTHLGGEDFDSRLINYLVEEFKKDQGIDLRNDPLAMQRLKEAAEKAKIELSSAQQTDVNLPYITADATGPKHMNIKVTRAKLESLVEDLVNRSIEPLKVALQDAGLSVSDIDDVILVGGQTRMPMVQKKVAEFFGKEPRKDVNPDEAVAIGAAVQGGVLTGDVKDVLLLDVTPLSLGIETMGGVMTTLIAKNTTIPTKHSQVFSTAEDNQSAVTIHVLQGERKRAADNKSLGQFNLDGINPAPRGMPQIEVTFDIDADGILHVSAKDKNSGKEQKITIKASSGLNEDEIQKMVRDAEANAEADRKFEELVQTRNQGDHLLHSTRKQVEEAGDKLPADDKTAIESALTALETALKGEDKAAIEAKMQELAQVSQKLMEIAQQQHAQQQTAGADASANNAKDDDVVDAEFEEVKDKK

Q: What does the source list for `CCn1c(=O)/c(=C2\Sc3ccccc3N2C)s/c1=C\c1ccccn1` [YM-08, (2Z,5E)-3-ethyl-5-(3-methylbenzo[d]thiazol-2(3H)-ylidene)-2-(pyridin-2-ylmethylene)thiazolidin-4-one]?
A: IC50 (human Hsc70 (HSPA8)): 0.61 ± 0.05 µM; enhancement of DnaK binding to denatured luciferase [1]: about 30%; EC50 [2]: 7.8 to 10.5 µM; AUCinf in the brain ([3]; 6.6 mg/kg i.v.): 0.26 µg·h/g; half-life ([3]; female, CD-1, mouse, brain, iv, 6.6 mg/kg i.v., read-out: terminal halftime in the brain (t1/2; brain) (converted)): 6.8 h; Kp at 18 h ([3]; female, CD-1, mouse, brain/plasma, iv, 6.6 mg/kg, 6.6 mg/kg i.v., for 18 hrs, read-out: brain:plasma (B/P) ratio): ~0.25; AUC(0-inf) ([3]; female, CD-1, mouse, plasma, iv, 6.6 mg/kg i.v., read-out: AUCinf in plasma): 13600 ng·h/mL; half-life ([3]; female, CD-1, mouse, plasma, iv, 6.6 mg/kg i.v., read-out: t1/2, plasma (converted)): 9.8 h; peak brain concentration ([3]; single 6.6 mg/kg i.v., Cremophor mixture): 4 µg/g
